Reference: ChEMBL document CHEMBL4184125, “SIRT1 activator isolated from artificial gastric juice incubate of total saponins in stems and leaves of Panax ginseng” (Bioorg Med Chem Lett, 2018)
The source made the active and inactive calls. No cut-off for these calls is given here.

Experiments:
[1] = target: T1, NAD-dependent protein deacetylase sirtuin-1 (Homo sapiens) (UniProt Q96EB6); test: Inhibition of SIRT1 (unknown origin) assessed as reduction in Fluor de Lys deacetylation at 10 to 20 uM incubated for 5 mins followed by substrate addition measured after 45 mins in presence of NAD/NADH by fluorescence assay
T1 sequence (whole entry): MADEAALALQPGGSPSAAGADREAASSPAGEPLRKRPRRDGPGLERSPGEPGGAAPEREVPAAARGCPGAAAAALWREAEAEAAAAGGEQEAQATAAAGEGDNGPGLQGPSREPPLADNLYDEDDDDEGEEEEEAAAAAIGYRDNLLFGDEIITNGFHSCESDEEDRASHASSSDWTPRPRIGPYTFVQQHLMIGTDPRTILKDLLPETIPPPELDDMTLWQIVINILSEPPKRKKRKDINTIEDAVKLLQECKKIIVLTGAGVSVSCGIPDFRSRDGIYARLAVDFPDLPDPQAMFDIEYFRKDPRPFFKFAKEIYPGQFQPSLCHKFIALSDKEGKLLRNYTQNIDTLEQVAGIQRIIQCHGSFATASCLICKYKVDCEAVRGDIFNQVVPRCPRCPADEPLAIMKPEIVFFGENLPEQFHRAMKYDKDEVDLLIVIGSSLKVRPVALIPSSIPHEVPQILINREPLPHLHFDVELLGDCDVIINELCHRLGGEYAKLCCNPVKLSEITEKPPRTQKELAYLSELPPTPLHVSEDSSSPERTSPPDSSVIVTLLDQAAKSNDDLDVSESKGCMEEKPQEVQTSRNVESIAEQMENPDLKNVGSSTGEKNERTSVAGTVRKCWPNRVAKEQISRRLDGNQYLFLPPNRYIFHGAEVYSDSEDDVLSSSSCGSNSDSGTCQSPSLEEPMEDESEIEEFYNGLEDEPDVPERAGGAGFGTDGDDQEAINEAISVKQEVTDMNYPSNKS

[2] = target: T1, NAD-dependent protein deacetylase sirtuin-1 (Homo sapiens); test: Activation of SIRT1 (unknown origin) assessed as Fluor de Lys deacetylation at 10 to 20 uM incubated for 5 mins followed by substrate addition measured after 45 mins in presence of NAD/NADH by fluorescence assay

Structure (SMILES): C=C(CCC=C(C)C)[C@H]1CC[C@]2(C)[C@@H]1[C@H](O)C[C@@H]1[C@@]3(C)CC[C@H](O)C(C)(C)[C@@H]3[C@@H](O[C@@H]3O[C@H](CO)[C@@H](O)[C@H](O)[C@H]3O[C@@H]3O[C@@H](C)[C@H](O)[C@@H](O)[C@H]3O)C[C@]12C
- inhibition [1]: inactive

Structure (SMILES): CC(C)=CCC[C@](C)(O)[C@H]1CC[C@]2(C)[C@@H]1[C@H](O)C[C@@H]1[C@@]3(C)CC[C@H](O)C(C)(C)[C@@H]3CC[C@]12C
- Activity [2]: Active

Structure (SMILES): CC(C)=CCC[C@](C)(O)[C@H]1CC[C@]2(C)[C@@H]1[C@H](O)C[C@@H]1[C@@]3(C)CC[C@H](O)C(C)(C)[C@@H]3[C@@H](O[C@@H]3O[C@H](CO)[C@@H](O)[C@H](O)[C@H]3O[C@@H]3O[C@@H](C)[C@H](O)[C@@H](O)[C@H]3O)C[C@]12C
- inhibition [1]: inactive

Structure (SMILES): C/C(=C/CCC(C)(C)O)[C@H]1CC[C@]2(C)[C@@H]1[C@H](O)C[C@@H]1[C@@]3(C)CC[C@H](O)C(C)(C)[C@@H]3[C@@H](O)C[C@]12C
- inhibition [1]: inactive

Structure (SMILES): C/C(=C\CCC(C)(C)O)[C@H]1CC[C@]2(C)[C@@H]1[C@H](O)C[C@@H]1[C@@]3(C)CC[C@H](O[C@@H]4O[C@H](CO)[C@@H](O)[C@H](O)[C@H]4O)C(C)(C)[C@@H]3[C@@H](O)C[C@]12C
- inhibition [1]: inactive

Structure (SMILES): C=C(CCC=C(C)C)[C@H]1CC[C@]2(C)[C@@H]1[C@H](O)C[C@@H]1[C@@]3(C)CC[C@H](O)C(C)(C)[C@@H]3[C@@H](O[C@@H]3O[C@H](CO)[C@@H](O)[C@H](O)[C@H]3O)C[C@]12C
- inhibition [1]: inactive
- Activity [2]: Active

Structure (SMILES): C/C(=C\CCC(C)(C)O)[C@H]1CC[C@]2(C)[C@@H]1[C@H](O)C[C@@H]1[C@@]3(C)CC[C@H](O)C(C)(C)[C@@H]3[C@@H](O)C[C@]12C
- inhibition [1]: inactive

Structure (SMILES): CC(C)(O)CCC[C@](C)(O)[C@H]1CC[C@]2(C)[C@@H]1[C@H](O)C[C@@H]1[C@@]3(C)CC[C@H](O)C(C)(C)[C@@H]3[C@@H](O)C[C@]12C
- inhibition [1]: inactive
- Activity [2]: inactive

Structure (SMILES): CC(C)=CCC[C@](C)(O)[C@H]1CC[C@]2(C)[C@@H]1[C@H](O)C[C@@H]1[C@@]3(C)CC[C@H](O[C@@H]4O[C@H](CO)[C@@H](O)[C@H](O)[C@H]4O)C(C)(C)[C@@H]3CC[C@]12C
- inhibition [1]: inactive
- Activity [2]: Active

Structure (SMILES): C/C(=C/CC[C@@](C)(O)[C@H]1CC[C@]2(C)[C@@H]1[C@H](O)C[C@@H]1[C@@]3(C)CC[C@H](O)C(C)(C)[C@@H]3[C@@H](O)C[C@]12C)CO
- inhibition [1]: inactive

Structure (SMILES): CC(C)=CCC[C@](C)(O)[C@H]1CC[C@]2(C)[C@@H]1[C@H](O)C[C@@H]1[C@@]3(C)CC[C@H](O[C@@H]4O[C@H](CO)[C@@H](O)[C@H](O)[C@H]4O[C@@H]4O[C@H](CO)[C@@H](O)[C@H](O)[C@H]4O)C(C)(C)[C@@H]3CC[C@]12C
- inhibition [1]: inactive
- Activity [2]: Active

Structure (SMILES): CC(C)=CCC[C@](C)(O[C@@H]1O[C@H](CO)[C@@H](O)[C@H](O)[C@H]1O)[C@H]1CC[C@]2(C)[C@@H]1[C@H](O)C[C@@H]1[C@@]3(C)CC[C@H](O)C(C)(C)[C@@H]3[C@@H](O)C[C@]12C
- inhibition [1]: inactive
- Activity [2]: Active

Structure (SMILES): CC(C)=CCC[C@@](C)(O)[C@H]1CC[C@]2(C)[C@@H]1[C@H](O)C[C@@H]1[C@@]3(C)CC[C@H](O[C@@H]4O[C@H](CO)[C@@H](O)[C@H](O)[C@H]4O)C(C)(C)[C@@H]3CC[C@]12C
- inhibition [1]: inactive

Structure (SMILES): Oc1ccc(/C=C/c2cc(O)cc(O)c2)cc1
- inhibition [1]: inactive

Structure (SMILES): CC(C)=CC/C=C(\C)[C@H]1CC[C@]2(C)[C@@H]1[C@H](O)C[C@@H]1[C@@]3(C)CC[C@H](O)C(C)(C)[C@@H]3[C@@H](O[C@@H]3O[C@H](CO)[C@@H](O)[C@H](O)[C@H]3O)C[C@]12C
- inhibition [1]: inactive
- Activity [2]: Active

Structure (SMILES): CC(C)=CCC[C@@](C)(O)[C@H]1CC[C@]2(C)[C@@H]1[C@H](O)C[C@@H]1[C@@]3(C)CC[C@H](O[C@@H]4O[C@H](CO)[C@@H](O)[C@H](O)[C@H]4O)C(C)(C)[C@@H]3[C@@H](O)C[C@]12C
- inhibition [1]: inactive

Structure (SMILES): CCOC(C)(C)CC/C=C(\C)[C@H]1CC[C@]2(C)[C@@H]1[C@H](O)C[C@@H]1[C@@]3(C)CC[C@H](O)C(C)(C)[C@@H]3[C@@H](O)C[C@]12C
- inhibition [1]: inactive

Structure (SMILES): CC(C)=CCC[C@@](C)(O)[C@H]1CC[C@]2(C)[C@@H]1[C@H](O)C[C@@H]1[C@@]3(C)CC[C@H](O)C(C)(C)[C@@H]3[C@@H](O[C@@H]3O[C@H](CO)[C@@H](O)[C@H](O)[C@H]3O[C@@H]3O[C@@H](C)[C@H](O)[C@@H](O)[C@H]3O)C[C@]12C
- inhibition [1]: inactive

Structure (SMILES): CC(C)=CCC[C@](C)(O)[C@H]1CC[C@]2(C)[C@@H]1[C@H](O)C[C@@H]1[C@@]3(C)CC[C@H](O[C@@H]4O[C@H](CO)[C@@H](O)[C@H](O)[C@H]4O)C(C)(C)[C@@H]3[C@@H](O)C[C@]12C
- inhibition [1]: inactive
- Activity [2]: Active

Structure (SMILES): CC(C)(O)CCC[C@@](C)(O)[C@H]1CC[C@]2(C)[C@@H]1[C@H](O)C[C@@H]1[C@@]3(C)CC[C@H](O)C(C)(C)[C@@H]3[C@@H](O)C[C@]12C
- inhibition [1]: inactive
- Activity [2]: inactive

Structure (SMILES): CC(C)=CC/C=C(\C)[C@H]1CC[C@]2(C)[C@@H]1[C@H](O)C[C@@H]1[C@@]3(C)CC[C@H](O[C@@H]4O[C@H](CO)[C@@H](O)[C@H](O)[C@H]4O[C@@H]4O[C@H](CO)[C@@H](O)[C@H](O)[C@H]4O)C(C)(C)[C@@H]3CC[C@]12C
- inhibition [1]: inactive
- Activity [2]: Active

Structure (SMILES): NC(=O)c1cccnc1
- inhibition [1]: inactive

Structure (SMILES): CC(C)=CCC[C@@](C)(O)[C@H]1CC[C@]2(C)[C@@H]1[C@H](O)C[C@@H]1[C@@]3(C)CC[C@H](O[C@@H]4O[C@H](CO)[C@@H](O)[C@H](O)[C@H]4O[C@@H]4O[C@H](CO)[C@@H](O)[C@H](O)[C@H]4O)C(C)(C)[C@@H]3CC[C@]12C
- inhibition [1]: inactive
- Activity [2]: Active
